# Tests used:
# [1] = test system: IKZF1 and IKZF3; assay: IKZF1 and IKZF3 level by immunoblotting in MOLT-4 cells; type: cell-based, human; conditions: MOLT-4, 48 h, 3 (5 µM), 5 (10 µM), 6 (2 µM)
# Experimental: (§1) K562 or MOLT4 cells were seeded on 6-well plate (2 × 10^6 cells/well) in a RPMI 1640 medium containing 10% FBS. MOLT4 cells were exposed to 1% DMSO (vehicle control), test compounds 6 (2 µM), 3 (5 µM), 5 (10 µM). Similarly, K562 cells were exposed to 1% DMSO, test compounds 6 (1 µM), 3 (1 µM), 5 (1 µM) for 48 h. Cells treated with 100 µM thalidomide or 10 µM lenalidomide served as positive controls. After incubation, cells were centrifuged (600 rpm, 6 min, 24 °C), washed once with PBS and lysed in 20 mM Tris (pH 7.2) containing 1% Triton X-100 supplemented with Complete® protease inhibitors cocktail (Roche). The levels of IKZF1 and IKZF3 were assessed by immunoblotting (IB).
# (§2) Cells were lysed in TBS buffer containing 1% Triton X-100 and Complete® protease inhibitor cocktail (Roche) for 15 min on ice with occasional vortexing. Insoluble material was centrifuged (12,000 rpm, 15 min, 4 °C) and supernatants were collected. Total protein concentration was measured with DC Protein Assay (Bio-Rad, Hercules, CA, USA). Cell lysates containing 30 µg of total protein were mixed with Laemli buffer supplemented with SDS and β-mercaptoethanol, denatured (10 min, 95 °C) and subjected to sodium dodecyl sulfate polyacrylamide gel electrophoresis (SDS-PAGE) electrophoresis (4% stacking and 10% resolving gels). Resolved proteins were electrotransferred (semi-dry, 90 min, 1.5 mA/cm^2) to a 0.45 µm nitrocellulose membrane (Thermo Scientific, Waltham, MA, USA). Membranes were blocked for 2 hours in TBST buffer (20 mM Tris-HCl pH 7.5, 0.9% NaCl, 0.1% Tween 20) containing 5% BSA (BioShop, Burlington, ON, Canada) and probed with primary antibodies (overnight at 4 °C) diluted in TBST buffer with 0.5% BSA. Tubulin served as a loading control for IB experiments. Anti IKZF3 (rabbit monoclonal, dilution 1:500), anti IKZF1 (rabbit polyclonal, dilution 1:500) were from Abcam. Anti IRF4 (rabbit polyclonal, dilution 1:500) were from Cell Signaling Technology. […] Protein bands intensities were analysed using Image Quant (version 5.0, GE Healthcare Life Sciences, Pittsburgh, PA, USA).
# [2] = test system: K562 cells; conditions: 48 h, MTT, mean ± SD; cited from earlier work
# [3] = test system: K562 cells; assay: Annexin V/PI or 7-AAD flow cytometry of apoptosis, K562; type: cell-based, human; conditions: K562, 5× IC50 (3 10 µM, 6 5 µM, 5 5 µM), staurosporine 1 µM; different incubation times for 3, 6 and 5
# Experimental: The phosphatidylserine on the extracellular side of cell membranes was quantified using an FITC Annexin V Apoptosis Detection Kit I (BD Pharmingen, San Diego, CA, USA) according to the manufacturer’s instruction. 10^6 cells were seeded on a 6-well plate (Nunc). […] The control cells were exposed to 1% DMSO or 1μM staurosporine. After treatment the cells were centrifuged at 700 rpm (120× g) for 5 min, washed twice with cold PBS and then resuspended in 1x binding buffer to a density of 10^6 cells/ml. 100 µL of the resuspended cells was stained in the dark with 5 μl of Annexin V-fluoroscein isothiocyanate (FITC) solution and 10 µL propidium iodide (PI) solution for 15 min at room temperature. The samples were then diluted with 400 μL of a binding buffer and within 1 h analyzed with a flow cytometer (BD FACSCalibur^TM, BD Biosciences, San Jose, CA, USA). After treatment, four populations of cells were assessed: (1) viable (neither apoptotic nor necrotic, Annexin V-FITC and PI negative), (2) apoptotic (Annexin V-FITC positive and PI negative), (3) late apoptotic (Annexin V-FITC and PI positive), and (4) necrotic (Annexin V-FITC negative and PI positive).
# 0.15 × 10^6 cells/ml were seeded on a 6-well plate (Nunclon, Thermo Fisher Scientific, Waltham, MA, USA). Following 24 h preincubation the cells were treated with either the compound or 1% DMSO (control) for 24 or 48 h. After indicated time, the cells were washed with cold PBS (w/o Mg^2+, Ca^2+), stained with Annexin V (FITC Annexin V Apoptosis Detection Kit with 7-aminoactinomycin D (7-AAD), Biolegend, San Diego, CA, USA) according to manufacturer instructions and analysed using BD FACSCalibur flow cytometer. Obtained Flow Cytometry Standard files were analyzed using BD FACSDiva Software (FACSDiva Version 6.1.3, Becton Dickinson Biosciences, San Jose, CA, USA). The experiment was performed three times in at least two technical replicates.
# [4] = test system: IKZF1 and IKZF3; assay: IKZF1 and IKZF3 level by immunoblotting in K562 cells; type: cell-based, human; conditions: K562, 48 h, 3 (1 µM), 5 (1 µM), 6 (1 µM)
# Experimental: as §1, §2
# [5] = test system: HL-60 cells; conditions: 48 h, MTT, mean ± SD; cited from earlier work
Compound,level of IKZF1 and IKZF3 (immunoblotting) [1],IC50 [2] [nM],"apoptotic cells, early (LR) and late (UR) [3]",level of IKZF1 and IKZF3 (immunoblotting) [4],IC50 [5] [µM]
CN(C)CCN1C(=O)C2C(C1=O)C1(c3ccccc3)CC2(c2ccccc2)C(c2ccccc2)=C1c1ccccc1 (stereo not drawn) [Compound 6],significant diminution,1000 ± 300,more than 90%,significant diminution,5 ± 0.24
CCC12C(=O)C(CC)(C(c3ccccc3)=C1c1ccccc1)C1C(=O)N(CCN3CCCCC3)C(=O)C12 (stereo not drawn) [Compound 3],modest reduction,2000 ± 310,about 44%,modest reduction,> 100
CCC12C(=O)C(CC)(C(c3ccccc3)=C1c1ccccc1)C1C(=O)N(CC(O)CNC(C)C)C(=O)C12 (stereo not drawn) [Compound 5],significant diminution,1000 ± 50,more than 90%,significant diminution,2 ± 0.05

# Reference: paper PMC6770581, “New Thalidomide-Resembling Dicarboximides Target ABC50 Protein and Show Antileukemic and Immunomodulatory Activities” (Biomolecules, 2019)
